Laboratory results reported in patent US7223733B2, “Modulation of TRIP-Br function and method of treating proliferative disorders” (National University of Singapore, priority 2004, dated 2007).
Where no end group is shown, it is not given here. [invdT] = inverted (3'-3') thymidine

What was measured:
Assay type in all cases: cell-based, human
E2F-regulated genes = experiment: Semi-quantitative RT-PCR of E2F-regulated genes in U2OS cells; conditions: 50 μM, 16 h
Description: Semi-quantitative RT-PCR. Total RNA was isolated from U2OS cells or U2OS-ER-E2F-1 cells (grown with or without 1.0 μM OHT and/or 10 μg/ml cycloheximide) using the TRIZOL® Reagent (Life Technologies). Total RNA (4 μg) was reverse transcribed using oligo-dT and M-MLV reverse transcriptase in a total reaction volume of 20 μl. Polymerase Chain Reactions (PCR) were carried out on 3 μl cDNA samples in the presence of […] deoxyribonucleotide triphosphates (dNTPs) and 40 μM of specific primer pairs in a total reaction volume of 50 μ. The cycling profile for PCR was as follow: 30 cycles of denaturation (94° C., 30 sec), annealing (51° C., 30 sec) and extension (72° C., 2 min), with a 2-minute initial denaturation step at 94° C. and a 10-minute terminal polishing step at 72° C. Sequences of gene-specific primers are available upon request. PCR amplification products were analyzed by agarose gel electrophoresis.
FIG. 3: Analysis of E2F-responsive transcription in U2OS cells in response to decoy peptide treatment. (A) β-galactosidase/Luciferase assay of U2OS cells co-transfected with 0.1 μg of pCMV/β-galactosidase and 7.5 μg of the indicated luciferase reporter plasmids. Promoter activity of vehicle-treated samples was normalized to 100% and the activities of the peptide-treated samples were expressed relative to the vehicle-treated control. Values represent the average +/− standard deviation of at least two independent experiments; (B) Semi-quantitative RT-PCR analysis on total RNA for dhfr, cyclin-E, cyclin A2, PCNA, DNA Pola and cdc2 expression in U2OS cells exposed for 16 h to either vehicle (0.5% DMSO) or 50 μM of the indicated decoy peptides. H-actin was included as an internal control.

[1] = tested on: CNE2 (nasal pharyngeal carcinoma); experiment: Anti-proliferative phenotypes in CNE2 cells; conditions: data not shown
[2] = tested on: E2F-responsive luciferase reporter (pGL3-TATA-6xE2F-Luc); experiment: E2F-responsive luciferase reporter assay in U2OS cells; conditions: 50 μM, 5 h
Description: DNA Transfection and Sequential β-Galactosidase/Luciferase Assay. For luciferase reporter assays, U2OS cells were cultured in 6-well dishes and transfected 24 h later with various reporter plasmids by the calcium precipitation method as previously described (Martin, K., et al. Nature 375, 691-694 (1995)). 24 h following precipitate removal, cells were exposed for 5 h to either vehicle (0.5% DMSO) or 50 μM of decoy peptide, prior to harvesting. Cells were scraped in 200 μl of lysis buffer and a single 10 μl aliquot of lysate was immediately used for sequential measurement of β-galactosidase and luciferase activity using the Dual Light System (Tropix). For protein overexpression experiments, U2OS cells were cultured in 6-well plates at a density of 1×10^5 cells/well and transfected 24 h later with Superfect reagent (QIAGEN).
FIG. 3: Analysis of E2F-responsive transcription in U2OS cells in response to decoy peptide treatment. […] Values represent the average +/− standard deviation of at least two independent experiments; (B) Semi-quantitative RT-PCR analysis on total RNA for dhfr, cyclin-E, cyclin A2, PCNA, DNA Pola and cdc2 expression in U2OS cells exposed for 16 h to either vehicle (0.5% DMSO) or 50 μM of the indicated decoy peptides. […]

[3] = tested on: cyclin E, Cdk4, cyclin D1 and p27^KIP1; experiment: Western blot of cyclin E, Cdk4, cyclin D1 and p27KIP1 in WI-38 cells; conditions: WI-38, 20 h
Description: Western blotting analysis. Cells in 6-well culture dish were washed in cold PBS and lysed in sample buffer (50 mM Tris-Cl, pH 6.8, 2% SDS, 10% glycerol, 0.1% bromophenol blue and 100 mM DTT). Whole cell lysates were heated at 100° C. for 10 minutes prior to electrophoresis. Separation of complex protein mixtures was achieved using a discontinuous polyacrylamide gel electrophoresis system consisting of a stacking gel and a 10% separating gel. Electrophoresis was performed with 1× running buffer (25 mM Tris pH 8.6, 0.19 M glycine, 0.1% SDS) in a mini vertical electrophoresis apparatus (BIO-RAD) at constant voltage (80 V). Separated proteins were transferred to nitrocellulose membrane (Immobilon™-P, Millipore) by electro-blotting (30V overnight at 4° C.) in transfer buffer (50 mM Tris, 384 mM glycine, 20% methanol, 0.01% SDS). Following blocking (1×PBS, 0.5% Tween 20, 4% [w/v] non-fat milk), target proteins were detected using a 1:2,500 dilution of specific primary antibodies. Anti-mouse or anti-rabbit IgG antibodies conjugated with horseradish peroxidase (Santa Cruz) were used to visualize immunoreactive proteins at 1:2,500 dilutions using enhanced chemiluminescence (Pierce).
FIG. 14: (A) E-Br1 or E-Br2 attenuates mitogen-stimulated CCNE gene induction. Sub-confluent WI-38 cells were serum-starved for 72 h. Following DNA enzyme transfection, the cultures were re-stimulated with serum and allowed to proliferate. After 20 h, cells were harvested and total RNA extracted for semi-quantitative RT-PCR to assess CCNE expression. β-actin was included as an internal control. PCR products were resolved by agarose gel electrophoresis and ethidium bromide-stained DNA bands were visualized under UV. […] Sub-confluent WI-38 cells were serum-starved for 72 h. Following transfection with DNA enzyme, the cultures were allowed to proliferate. After 20 h, cells were harvested for western blot (WB) analysis of cyclin E, Cdk4, cyclin D1 and p27^KIP1 expression. Coomassie-stained protein was included as control for normalization.

CCNE gene = experiment: Semi-quantitative RT-PCR of CCNE in serum-stimulated WI-38 cells; conditions: WI-38, serum stimulation
Description: Semi-quantitative RT-PCR. Following various treatments, WI-38 cells in 6-well culture dish were subjected to total RNA extraction using the TRIZOL® Reagent (Life Technologies). Total RNA (4 μg) was reversed transcribed using oligo-dT and M-MLV reverse transcriptase in a total reaction volume of 20 μl. Polymerase Chain Reactions (PCR) were carried out on 3 μl cDNA sample in the presence of […] deoxyribonucleotide triphosphates (dNTPs) and 40 μM of specific primer pairs in a total reaction volume of 50 μl. The cycling profile for PCR was as follow: 30 cycles of denaturation (94° C., 30 sec), annealing (51° C., 30 sec) and extension (72° C., 2 min), with a 2-minute initial denaturation step at 94° C. and a 10-minute polishing step at 72° C. at the end. Sequences of gene-specific primers are available upon request. Post-PCR samples were analyzed by agarose gel electrophoresis.
FIG. 14: (A) E-Br1 or E-Br2 attenuates mitogen-stimulated CCNE gene induction. Sub-confluent WI-38 cells were serum-starved for 72 h. Following DNA enzyme transfection, the cultures were re-stimulated with serum and allowed to proliferate. After 20 h, cells were harvested and total RNA extracted for semi-quantitative RT-PCR to assess CCNE expression. β-actin was included as an internal control. PCR products were resolved by agarose gel electrophoresis and ethidium bromide-stained DNA bands were visualized under UV. […]

Substance | expression profile of the genes under investigation relative to vehicle (E2F-regulated genes; six E2F-regulated genes) | response of CNE2 cells [1] | transcriptional activity of the E2F-responsive luciferase reporter [2] | DNA Polα mRNA expression level (E2F-regulated genes) | cdc2 mRNA transcript level (E2F-regulated genes) | dhfr mRNA expression level (E2F-regulated genes) | transcriptional activity of PCNA gene (E2F-regulated genes) | transcriptional activity of cyclin A2 gene (E2F-regulated genes) | transcriptional activity of cyclin-E gene (E2F-regulated genes) | expression of Cdk4, cyclin D1 and p27^KIP1 [3] | mitogen-induced cyclin E protein expression [3] | serum-induced CCNE gene activation (CCNE gene)
ERQIKIWFQNRRMKWKKGLDEDGLLLFCEGDTIAD (Peptide containing penetratin sequence from Drosophila and random peptide sequence) [*SCR, reference compound] | negligible effects |  |  |  |  |  |  |  |  |  |  | 
ERQIKIWFQNRRMKWKKTGFLTDLTLDDILFADID (ERQIKIWFQNRRMKWKKTGFLTDLTLDDILFADID-NH2) [*Br2] |  | in manners similar to those exhibited by U2OS cells | decreased the transcriptional activity | down-regulated | significant down regulation | down-regulated | unaffected | unaffected | unaffected |  |  | 
5′-T TACCCAACAGGCTAGCTACAACGAATATCACA-3′ (DNA TTACCCAACAGGCTAGCTACAACGAATATCACA; DNA, 3' [invdT], backbone not given here) [E-Br2] |  |  |  |  |  |  |  |  |  | without altering the expression | prevents mitogen-induced cyclin E expression | suppressed
5′-T TGCTCAGCAGGCTAGCTACAACGACTTGCTCA-3′ (DNA TTGCTCAGCAGGCTAGCTACAACGACTTGCTCA; DNA, 3' [invdT], backbone not given here) [E-Br1] |  |  |  |  |  |  |  |  |  | without altering the expression | prevents mitogen-induced cyclin E expression | suppressed
ERQIKIWFQNRRMKWKKATGCLLDDGLEGLFEDID (ERQIKIWFQNRRMKWKKATGCLLDDGLEGLFEDID-NH2) [*Br1] |  | in manners similar to those exhibited by U2OS cells | decreased the transcriptional activity |  | significant down regulation |  | unaffected | unaffected | unaffected |  |  | 
